Measured values taken from article PMC11599599, “Synthesis, characterization, molecular docking, pharmacokinetics, and molecular dynamics of new bis-thiazoles based on bis-thiosemicarbazone as anti-coxsackievirus” (Scientific Reports, 2024).

Key:
Cox B virus = test: Plaque reduction assay against Cox B virus; assay type: cell-based; settings: for inhibition at 20 µg/mL / inhibition at 40 µg/mL: Vero
Procedure: (§1) Compounds: 10 mg were dissolved in 1 mL (10% DMSO and 90% deionized water), sterilized by 1% antibiotic–antimycotic mixture and stored in −20.
(§2) Cells: Vero cell line was used. The cells were propagated in DMEM medium (Lonza, USA) supplemented with 10% fetal bovine serum (Gibco, USA), 1% antibiotic–antimycotic mixture (Lonza, USA).
Virus: Cox B virus was propagated and titrated to give final count of 0.9 × 10^5 viral particle/mL.
This test was done according to Tebas et al.[47], In a 12-well plate Vero cells (10^5 cells/mL) were cultivated for 1 day at 37 °C. The Cox B virus was mixed with the safe concentration of the compound and incubated for 1 h at 37 °C before being added to the cells. Following the removal of the growth media, the cells were injected with virus-extract combinations ([…]) and then rinsed with PBS (Phosphate Buffer Saline). Following a one-hour contact period for virus adsorption, the cell monolayer was supplemented with one milliliter of Dulbecco’s Modified Eagles Media (DMEM) containing 2% agarose. The plates were then allowed to solidify and incubated at 37 °C until the development of viral plaques. Formalin (10%) was added for 2 h then plates were stained with crystal violet. Control wells were included where untreated virus was incubated with Vero cells and finally plaques were counted and percentage reduction in plaques formation in comparison to control wells was recorded as following:
% inhibition = (viral count(untreated) - viral count(treated))/viral count(untreated)X100.

Vero cells = test: Cytotoxicity assay on Vero cells (microscopic morphology); assay type: cell-based; parameters: key to Cytotoxicity on Vero cells (cell sheet affected): -: Safe concentration; + 1, +2, + 3, +4: about 25, 50, 75, 100% of cell sheet was affected respectively; + 1, +2, + 3, +4: about 25, 50, 75, 100% of cell sheet was affected respectively; + 1, +2, + 3, +4: about 25, 50, 75, 100% of cell sheet was affected respectively; + 1, +2, + 3, +4: about 25, 50, 75, 100% of cell sheet was affected respectively; M: masked (color of compounds made cells unseen); settings: for Cytotoxicity on Vero cells (cell sheet affected): 24 h, morphological changes; for Safety effect on Vero cells (in words): Table 1, 24 h
Procedure: as §1, §2
Cytotoxic effect of compounds was measured by inoculation different doses of compounds on tested cells then examining them microscopically after 24 h to determine any morphological changes that appeared on cells as a result of being subjected to the compounds[46]. Vero cells were seeded onto 96-well plates, which were then incubated for the whole night. After a 24-hour incubation period at 37 °C in a humidified incubator with 5% CO2, compounds were injected at concentrations of 10, 20, 30, 40, 50, 60, 70, 80, 90, and 100 µg /100 µl. Any morphological changes were monitored under a microscope.

melting point [°C] | Structure (SMILES) | Viral count (treated) (Cox B virus; 20 ug/mL) | Viral count (treated) (Cox B virus; 40 ug/mL) | inhibition at 20 µg/mL (Cox B virus) [%] | inhibition at 40 µg/mL (Cox B virus) [%] | Cytotoxicity on Vero cells (cell sheet affected) (Vero cells; 10 µg/100µl) | Cytotoxicity on Vero cells (cell sheet affected) (Vero cells; 20 µg/100µl) | Cytotoxicity on Vero cells (cell sheet affected) (Vero cells; 30 µg/100µl) | Cytotoxicity on Vero cells (cell sheet affected) (Vero cells; 40 µg/100µl) | Cytotoxicity on Vero cells (cell sheet affected) (Vero cells; 50 µg/100µl) | Cytotoxicity on Vero cells (cell sheet affected) (Vero cells; 60 µg/100µl) | Safety effect on Vero cells (in words) (Vero cells) | Cytotoxicity on Vero cells (cell sheet affected) (Vero cells; 70 µg/100µl) | Cytotoxicity on Vero cells (cell sheet affected) (Vero cells; 80 µg/100µl) | Cytotoxicity on Vero cells (cell sheet affected) (Vero cells; 90 µg/100µl) | Cytotoxicity on Vero cells (cell sheet affected) (Vero cells; 100 µg/100µl)
130 to 132 | COc1ccc(OC)c(C=C2/C(=N/NC3=NC(=O)CS3)c3ccccc3/C2=N\NC2=NC(=O)CS2)c1 [9a, 2,2’-(((1E,3E)−2-(2,5-dimethoxybenzylidene)−1H-indene-1,3(2H)-diylidene)bis(hydrazin-1-yl-2-ylidene))bis(thiazol-4(5H)-one)] | 1.6 × 10^7 | 1.6 × 10^7 | 0 | 0 | - | - | - | - | - | - | highly toxic at low concentration |  |  |  | 
 | COc1ccc(OC)c(C=C2/C(=N/Nc3nc(C)cs3)c3ccccc3/C2=N\Nc2nc(C)cs2)c1 [11c, 2,2’-(((1E,3E)−2-(2,5-dimethoxybenzylidene)−1H-indene-1,3(2H)-diylidene)bis(hydrazin-1-yl-2-ylidene))bis(4-methylthiazole)] | 0.84 × 10^7 | 0.57 × 10^7 | 47 | 64 | - | - | - | - | - | - | dense and coloured that made masking to the cell sheet | - | - | M | M
132 to 135 | COc1ccc(OC)c(C=C2/C(=N/Nc3nc(C)c(/N=N/c4ccc(C)cc4)s3)c3ccccc3/C2=N\Nc2nc(C)c(/N=N/c3ccc(C)cc3)s2)c1 [7b, 2,2’-(((1E,3E)−2-(2,5-dimethoxybenzylidene)−1H-indene-1,3(2H)-diylidene)bis(hydrazin-1-yl-2-ylidene))bis(4-methyl-5-((E)-p-tolyldiazenyl)thiazole)] | 1.6 × 10^7 | 1.07 × 10^7 | 0 | 33 | - | - | - | - | - | M | dense and coloured that made masking to the cell sheet | M | M | M | M
 | COc1ccc(OC)c(C=C2/C(=N/Nc3nc(C)c(/N=N/c4ccc(Cl)cc4)s3)c3ccccc3/C2=N\Nc2nc(C)c(/N=N/c3ccc(Cl)cc3)s2)c1 [7c, 2,2’-(((1E,3E)−2-(2,5-dimethoxybenzylidene)−1H-indene-1,3(2H)-diylidene)bis(hydrazin-1-yl-2-ylidene))bis(5-((E)-(4-chlorophenyl)diazenyl)−4-methylthiazole)] | 1.07 × 10^7 | 1.6 × 10^7 | 33 | 0 | - | - | - | - | - | - | dense and coloured that made masking to the cell sheet | - | - | M | M
198 to 200 | COc1ccc(OC)c(C=C2/C(=N/NC3=NC(=O)C(C)S3)c3ccccc3/C2=N\NC2=NC(=O)C(C)S2)c1 (centres unmarked) [9b, 2,2’-(((1E,3E)−2-(2,5-dimethoxybenzylidene)−1H-indene-1,3(2H)-diylidene)bis(hydrazin-1-yl-2-ylidene))bis(5-methylthiazol-4(5H)-one)] |  |  |  |  | - | - | - | - | - | - | highly toxic at low concentration |  |  |  | 
 | COc1ccc(OC)c(C=C2/C(=N/Nc3nc(C)c(C(C)=O)s3)c3ccccc3/C2=N\Nc2nc(C)c(C(C)=O)s2)c1 [11a, 1,1’-((((1E,3E)−2-(2,5-dimethoxybenzylidene)−1H-indene-1,3(2H)-diylidene)bis(hydrazin-1-yl-2-ylidene))bis(4-methylthiazole-2,5-diyl))bis(ethan-1-one)] | 1.44 × 10^7 | 0.68 × 10^7 | 10 | 57 | - | - |  | M | M | M | dense and coloured that made masking to the cell sheet | M | M | M | M
 | CCOC(=O)c1sc(N/N=C2/C(=Cc3cc(OC)ccc3OC)/C(=N/Nc3nc(C)c(C(=O)OCC)s3)c3ccccc32)nc1C [11b, Diethyl 2,2’-(((1E,3E)−2-(2,5-dimethoxybenzylidene)−1H-indene-1,3(2H)-diylidene)bis-(hydrazin-1-yl-2-ylidene))bis(4-methylthiazole-5-carboxylate)] | 0.8 × 10^7 | 0.96 × 10^7 | 50 | 40 | - | - | - | - | - | M | dense and coloured that made masking to the cell sheet | M | M | M | M
 | COc1ccc(OC)c(C=C2C(=O)c3ccccc3C2=O)c1 [compound 1, 2-(2,5-dimethoxy-benzylidene)indan-1,3-dione] | 1.42 × 10^7 | 1.6 × 10^7 | 11 | 0 | - | - | - | - | - | - | higher safety | - | - | - | -
